Results taken from patent US8378117B2 (priority 2005, dated 2013).

Assays:
[1] = target: T1, CB2 receptor (Homo sapiens, UniProt P34972); assay: Modified functional cell-based assay (Beta-Glo luminescence), CB2 receptor; settings: CB2 EC50 (Receptor Functional Activity), one sample per compound, Cpd 237 n=3
T1 construct: expressed in transfected cells
Experimental: Additional functional activity studies were performed with minor modifications. Beta galactosidase activity was quantified using the luminescent Beta-Glo Assay System (Promega Corp. Madison, Wis.) and an Orion Microplate Luminometer (Berthold Detection Systems, Oak Ridge, Tenn.). The EC50 values were calculated using GraphPad Prism and a four parameter logistic equation.
The functional activity EC50 value for compounds tested (shown in Table 8) were obtained from studies in which varying compound concentrations were used. With the exception of Cpd 237 (n=3), one sample for each compound was tested.

[2] = target: T1, CB2 receptor; assay: Binding assay for CB2 agonists or inverse agonists (SK-N-MC membranes, [3H]-CP-55,940); settings: for IC50: Cannabinoid CB2 Receptor Binding IC50, calculated by linear regression from percent inhibition at various test concentrations
In short: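 Membranes from SK-N-MC cells stably expressing human CB2 were incubated with radioligand and test compounds for 90 min at 30 °C in Tris-HCl buffer, pH 7.5, with MgCl2, EDTA and fatty-acid-free BSA. Filter-bound radioactivity was counted; IC50 was derived by linear regression of percent inhibition.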

[3] = test system: Male CD-1 mice; assay: Postoperative inflammatory ileus, microscopic myeloperoxidase histological examination; format: in vivo; settings: Surgical Manipulation, 24 hr post-laparotomy, mean ± SE
Experimental: (§1) Male CD-1 mice were anesthetized by inhaled isoflurane and prepared for surgery. The abdomen was shaved of hair and treated with antiseptic solution. The animal was then covered with a surgical drape, leaving the abdomen exposed. A mid-line laparotomy was performed, and the entire small intestine was exteriorized onto the sterile drape. Using two moistened, sterile, cotton-tipped applicators, the small intestine was then gently compressed along its length from the ligament of Treitz to the ileo-cecal junction. The small intestine was then returned to the abdominal cavity and the incision closed by two layers of sutures.
(§2) Age-matched mice were randomly assigned to groups (6 animals per group) and injected intraperitoneally (i.p.) with “vehicle” (a mixture of 5% ethanol/5% Tween80/90% of 5% dextran in water w/v) containing various doses of a test compound 1 hr prior to laparotomy. The second group was injected intraperitoneally with vehicle. The third group was administered intragastrically (1 mg/kg) a mixture (1 mg/mL) of dexamethasone in 20% hydroxypropyl methyl dextran in water, once per day for two days prior to surgery and 5 hrs post-laparotomy. The fourth group received no intervention and served as naïve controls.
Microscopic histological examination was performed on harvested tissues 24 hr post-laparotomy. […] Hanker-Yates reagent (Polysciences Inc.) forms an insoluble, blue-black polymer in the presence of hydrogen peroxide and peroxidase enzyme activity. Segments of mid small bowel were collected from the centrifuge tubes described in the previous section. Whole mounts of the muscle layer were prepared by opening the tube of bowel along the mesenteric border and pinning the tissue flat in a Sylgard™ lined Petri dish with the mucosal surface facing upward. The tissue was stretched to 1.5 times its length and 2.5 times its width, and the mucosa removed by fine dissection. The remaining muscularis whole mounts were then fixed with 100% ethanol for 45 min, washed 3 times with PBS, and incubated for 20 min in PBS containing 0.1% hydrogen peroxide and 1 mg/ml Hanker-Yates reagent (Polysciences, Inc). The reagent is polymerized in the presence of hydrogen peroxide and peroxidase activity to form a blue-black deposit. Following a second wash with PBS, the whole mounts were mounted on glass slides, cover-slipped, and viewed on an optical microscope. Myeloperoxidase containing leukocytes were counted in 6 to 8 adjacent 200× optical fields, and the mean cell counts were calculated and recorded.
The presence of myeloperoxidase (MPO) positive immune cells in the intestinal muscularis is rare in normal animals.

[4] = test system: Male CD-1 mice; assay: Postoperative inflammatory ileus, upper gastrointestinal transit (FITC-dextran, Geometric Center); format: in vivo; settings: Surgical Manipulation, 24 hr post-laparotomy, mean ± SE, scale 1 to 15
Experimental: as §1, §2
Upper gastrointestinal transit was measured 24 hr post-laparotomy. Mice were fed a test meal consisting of 150 μL of FITC-dextran solution (5 mg/mL of 70,000 molecular weight dextran conjugated to fluorescein-isothiocyanate in 0.5% hydroxypropyl methylcellulose/deionized water) administered intragastrically by an 18 gauge feeding tube. Following oral administration of the FITC-dextran test meal, animals were returned to their home cages. Following a 45 min test period, mice were euthanized by isoflurane overdose and exsanguination. The entire gastrointestinal tract from the lower esophageal sphincter to the terminal colon was removed. The bowel segments were opened along the mesenteric border. The tissue and luminal contents of the stomach, 10 equal segments of small intestine, the cecum, and 3 equal segments of colon were placed in individual Eppendorf tubes containing 1 ml of PBS. The tissue was vigorously mixed on a tabletop vortex, and solid materials were pelletized by centrifugation. Aliquots of the cleared supernatant were read in duplicate on a 96-well fluorescence plate reader to quantify the magnitude of the fluorescent signal in each segment of bowel.
These values were used to calculate the Geometric Center (REF), which is defined as the weighted average distribution of the fluorescent signal along the gastrointestinal tract: GC=Σ(% of total fluorescent signal per segment×segment number)/100,
Higher GC values represent faster rates of transit on scale of 1 to 15.
Surgical manipulation of the small bowel leads to a significant delay in gastrointestinal transit, going from a Geometric Center of 8.4 in normal mice to 3.3 in vehicle treated animals.

T1 sequence (P34972 whole entry): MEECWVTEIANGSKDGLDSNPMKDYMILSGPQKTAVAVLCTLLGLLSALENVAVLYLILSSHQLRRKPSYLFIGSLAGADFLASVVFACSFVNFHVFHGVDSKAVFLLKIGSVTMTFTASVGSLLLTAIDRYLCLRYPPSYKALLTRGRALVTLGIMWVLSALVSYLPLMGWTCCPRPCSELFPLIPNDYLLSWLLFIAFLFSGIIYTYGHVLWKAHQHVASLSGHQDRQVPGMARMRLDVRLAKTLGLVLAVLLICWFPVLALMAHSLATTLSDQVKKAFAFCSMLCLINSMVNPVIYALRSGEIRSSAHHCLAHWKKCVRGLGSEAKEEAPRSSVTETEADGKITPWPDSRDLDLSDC

| SMILES | EC50 [1] [nM] | IC50 [2] [nM] | MPO-Positive Cells (Per 200× Optical Field) ([3]; dose 10 mg/kg) | MPO-Positive Cells (Per 200× Optical Field) ([3]; dose 30 mg/kg) | CB2 receptor binding percent inhibition ([2]; test concentration 0.2 μM (footnote 2), 0.2 µM) [%] | Geometric Center (upper gastrointestinal transit) ([4]; dose 10 mg/kg) | Geometric Center (upper gastrointestinal transit) ([4]; dose 30 mg/kg) | MPO-Positive Cells (Per 200× Optical Field) ([3]; dose 1 mg/kg) | MPO-Positive Cells (Per 200× Optical Field) ([3]; dose 3 mg/kg) | inhibition at 0.2 µM ([2]; test concentration 0.2 μM (footnote 2), read-out: CB2 receptor binding percent inhibition) [%] | Geometric Center (upper gastrointestinal transit) ([4]; dose 1 mg/kg) | Geometric Center (upper gastrointestinal transit) ([4]; dose 3 mg/kg) |
| --- | --- | --- | --- | --- | --- | --- | --- | --- | --- | --- | --- | --- |
| O=C(N[C@H](CO)c1ccccc1)c1n[nH]c2c1CCCCC2Cc1cccc(Cl)c1 (single isomer, unassigned) [Cpd 230, (8R*)-8-(3-chloro-benzyl)-1,4,5,6,7,8-hexahydro-cycloheptapyrazole-3-carboxylic acid [(1S)-2-hydroxy-1-phenyl-ethyl]-amide] | 11 | 40 | – | – | – | – | – | – | – | – | – | – |
| O=C(N[C@H](CO)c1ccccc1)c1n[nH]c2c1CCCCC2Cc1cccc(Cl)c1 (single isomer, unassigned) [Cpd 231, (8S*)-8-(3-chloro-benzyl)-1,4,5,6,7,8-hexahydro-cycloheptapyrazole-3-carboxylic acid [(1S)-2-hydroxy-1-phenyl-ethyl]-amide] | 82 | 200 | – | – | – | – | – | – | – | – | – | – |
| C[C@H](NS(=O)(=O)/C=C/c1n[nH]c2c1CCCCC2Cc1cccc(F)c1)c1ccccc1 (single isomer, unassigned) [Cpd 232, (2E)-2-[(8R*)-8-(3-fluoro-benzyl)-1,4,5,6,7,8-hexahydro-cycloheptapyrazol-3-yl]-ethenesulfonic acid [(1S)-1-phenyl-ethyl]-amide] | 150 | 60 | 127.6 ± 25.7 | 60.2 ± 20.8 | 81 | 4.0 ± 0.59 | 5.6 ± 0.16 | – | – | – | – | – |
| C[C@H](NS(=O)(=O)/C=C/c1n[nH]c2c1CCCC/C2=C\c1ccc(Cl)cc1)c1ccccc1 [Cpd 237, (2E,8E)-2-[8-(4-chloro-benzylidene)-1,4,5,6,7,8-hexahydro-cycloheptapyrazol-3-yl]-ethenesulfonic acid [(1S)-1-phenyl-ethyl]-amide] | 3200 | 100 | 77.7 ± 25.7 | 60.3 ± 20.9 | – | 4.7 ± 0.40 | 5.6 ± 0.76 | 57.8 ± 17.0 | 41.3 ± 9.4 | 64 | 3.8 ± 0.40 | 3.6 ± 0.53 |
